{
  "source": "PubChem BioAssay AID463074",
  "about": "(Broad Institute, 2010)",
  "tested_on": "HMLE_sh_eGFP viability, CellTiter-Glo luminescence, 72 h",
  "test": "viability loss of HMLE_sh_eGFP cells – cell-based, luminescence, counter-screen for HMLE_sh_ECad selective toxicity project, dose response (AID 463074);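 further: counterscreen control line to flag general toxicity for the HMLE_sh_ECad screen; potency for loss of viability as luminescence drops below DMSO wells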",
  "note": "Activity calls are given as the source filed them.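 How the source made its calls: active means AC50 no more than tenfold above the top dose tested, or full inhibition at every dose with a flat fit (cut at about 19 µM in these data); inconclusive means flat curve fit with inhibition between 30% and 70%, or poor fit; inactive means AC50 more than tenfold above the top dose tested.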",
  "data": [
    {"smiles": "C=C(C)COc1ccc(-c2[nH]ncc2-c2ccc(OC)cc2)c(O)c1", "values": [
      {"measurement": "AC50", "result": 8.86, "unit": "µM"}
    ]},
    {"smiles": "COC(=O)C1=C(C)N(Cc2ccccc2)C(=NCc2cccc(Cl)c2)N[C@H]1c1ccccc1", "values": [
      {"measurement": "AC50", "result": 7.17, "unit": "µM"}
    ]},
    {"smiles": "Cc1cc(C)c2nc(N3CCCC(C(=O)N4CCN(c5ncccn5)CC4)C3)sc2c1", "note": "(configuration not stated)", "values": [
      {"measurement": "AC50", "result": 11.2, "unit": "µM"}
    ]},
    {"smiles": "COc1cc(C(=O)N/N=C(\\Cc2ncc[nH]2)c2ccccc2)cc(OC)c1OC", "values": [
      {"measurement": "AC50", "result": 6.39, "unit": "µM"}
    ]},
    {"smiles": "N#CC1=C(SCC(=O)c2ccc(Br)cc2)NC2=C(C(=O)CCC2)C1c1ccco1", "note": "(configuration not stated)", "values": [
      {"measurement": "AC50", "result": 2.21, "unit": "µM"}
    ]},
    {"smiles": "CCCc1cc(SCC(=O)Nc2c(C)n(C)n(-c3ccccc3)c2=O)n2c(nc3ccccc32)c1C#N", "values": [
      {"measurement": "AC50", "result": "> 19.5 µM (inactive)"}
    ]},
    {"smiles": "CC(C)(C)N(Cc1ccccc1)C(=O)c1cc2ccccc2o1", "values": [
      {"measurement": "AC50", "result": 0.653, "unit": "µM"}
    ]},
    {"smiles": "Nc1nnc(SCC(=O)OCC(=O)NC2CCCCC2)s1", "values": [
      {"measurement": "AC50", "result": "> 19.5 µM (inactive)"}
    ]},
    {"smiles": "Sc1nnc(-c2ccc(Cl)cc2)n1Cc1ccccc1", "values": [
      {"measurement": "AC50", "result": 8.62, "unit": "µM"}
    ]},
    {"smiles": "CN[C@H]1CCc2cc(OC)c(OC)c(OC)c2-c2ccc(N(C)CC(OC)OC)c(=O)cc21", "values": [
      {"measurement": "AC50", "result": 2.15, "unit": "µM"}
    ]},
    {"smiles": "CNC(=O)NC(=O)C(C)OC(=O)c1c2c(nc3ccccc13)/C(=C/c1cccs1)CC2", "note": "(configuration not stated)", "values": [
      {"measurement": "AC50", "result": 4.01, "unit": "µM"}
    ]},
    {"smiles": "CCN(CC)CCNc1ncnc2c1sc1nc(N3CCOCC3)c3c(c12)CC(C)(C)SC3", "values": [
      {"measurement": "AC50", "result": 6.99, "unit": "µM"}
    ]},
    {"smiles": "O=C(c1ccc(OCCN2CCCCC2)cc1)c1c(-c2ccc(O)cc2)sc2cc(O)ccc12", "values": [
      {"measurement": "AC50", "result": 2.35, "unit": "µM"}
    ]},
    {"smiles": "O=C1/C(=C\\c2cc(Br)cc(Br)c2O)SC(=S)N1Cc1ccccc1", "values": [
      {"measurement": "AC50", "result": 0.906, "unit": "µM"}
    ]},
    {"smiles": "COc1cc(OC)cc(-c2sc3ccc(OC)cc3c2C#CCO)c1", "values": [
      {"measurement": "AC50", "result": 6.89, "unit": "µM"}
    ]},
    {"smiles": "O=C(Cn1ncc(Cl)c(Cl)c1=O)NCC1CCCCC1", "values": [
      {"measurement": "AC50", "result": 5.74, "unit": "µM"}
    ]},
    {"smiles": "CCc1ccc2c(c1)[C@H]1OCC[C@H]1[C@@H](c1cccs1)N2", "values": [
      {"measurement": "AC50", "result": 2.06, "unit": "µM"}
    ]},
    {"smiles": "CCOC(=O)c1nn(-c2ccc(F)cc2)c(-c2ccccc2)c1C(=O)c1ccccc1", "values": [
      {"measurement": "AC50", "result": 11.8, "unit": "µM"}
    ]},
    {"smiles": "COc1ccc(/C=C/C(=O)c2ccccc2)cc1Cn1nnc2ccccc21", "values": [
      {"measurement": "AC50", "result": 6.28, "unit": "µM"}
    ]},
    {"smiles": "CC(C)Cn1c(O)c(/C=C2\\C=NN=C2c2ccccc2)sc1=S", "values": [
      {"measurement": "AC50", "result": 3.54, "unit": "µM"}
    ]},
    {"smiles": "CC(C(=O)O)N1C(=O)CSc2ncccc21", "note": "(configuration not stated)", "values": [
      {"measurement": "AC50", "result": "> 19.5 µM (inactive)"}
    ]},
    {"smiles": "O=C(O)CCn1cc(/C=C/C(=O)c2ccc(Cl)cc2)c(-c2ccc(Br)cc2)n1", "values": [
      {"measurement": "AC50", "result": 7.09, "unit": "µM"}
    ]},
    {"smiles": "COc1cc(/C=C2/CCC/C(=C\\c3cc(O)c(OC)c(Cl)c3)C2=O)cc(Cl)c1O", "values": [
      {"measurement": "AC50", "result": 0.768, "unit": "µM"}
    ]},
    {"smiles": "CC(C)(C)c1cc(C(=O)NNc2cc(C(F)(F)F)ccc2Cl)n(Cc2ccccc2)n1", "values": [
      {"measurement": "AC50", "result": 4.18, "unit": "µM"}
    ]},
    {"smiles": "CCCC(=O)NC(=S)Nc1cccc(Cl)c1N1CCCC1", "values": [
      {"measurement": "AC50", "result": 4.25, "unit": "µM"}
    ]},
    {"smiles": "CC(NC(=O)c1ccc(N2CCNCC2)c([N+](=O)[O-])c1)C12CC3CC(CC(C3)C1)C2", "note": "(configuration not stated)", "values": [
      {"measurement": "AC50", "result": 6.64, "unit": "µM"}
    ]},
    {"smiles": "CCCCC(=O)NC(c1ccco1)c1cc(Cl)c2cccnc2c1O", "note": "(configuration not stated)", "values": [
      {"measurement": "AC50", "result": 5.79, "unit": "µM"}
    ]},
    {"smiles": "O=C1NN(c2cccc(Br)c2)C(=O)/C1=C\\c1ccccc1", "values": [
      {"measurement": "AC50", "result": 6.97, "unit": "µM"}
    ]},
    {"smiles": "COc1cc(CNC(C)c2ccccc2)cc(Br)c1OCc1ccccc1", "note": "(configuration not stated)", "values": [
      {"measurement": "AC50", "result": 6.75, "unit": "µM"}
    ]},
    {"smiles": "O=C(C1CCCN(S(=O)(=O)c2ccc([N+](=O)[O-])cc2)C1)N1CCCCC1", "note": "(configuration not stated)", "values": [
      {"measurement": "AC50", "result": "> 19.5 µM (inactive)"}
    ]},
    {"smiles": "C=CCn1c(SCC(=O)c2[nH]c(C)c(C(=O)OCC)c2C)nc2scc(-c3ccc(OC)c(OC)c3)c2c1=O", "values": [
      {"measurement": "AC50", "result": 3.99, "unit": "µM"}
    ]},
    {"smiles": "COc1ccc(OC)c(-c2cc(-c3cccnc3)nc(N)c2C#N)c1", "values": [
      {"measurement": "AC50", "result": 1.95, "unit": "µM"}
    ]},
    {"smiles": "COc1ccc2cc(C(=O)N/N=C/c3sc4ccccc4c3O)ccc2c1", "values": [
      {"measurement": "AC50", "result": 1.8, "unit": "µM"}
    ]},
    {"smiles": "Cc1ccc(COc2ccc(Br)cc2/C=N/O)cc1", "values": [
      {"measurement": "AC50", "result": 5.23, "unit": "µM"}
    ]},
    {"smiles": "O=C(Nc1ccc(Cl)c(C(F)(F)F)c1)NC1CC2CCCC(C1)N2Cc1ccccc1", "note": "(configuration not stated)", "values": [
      {"measurement": "AC50", "result": 6.8, "unit": "µM"}
    ]},
    {"smiles": "N#C/C(=C/c1ccc(O)c(O)c1)C(=O)NCc1ccc(Cl)cc1", "values": [
      {"measurement": "AC50", "result": 13.7, "unit": "µM"}
    ]},
    {"smiles": "O=C(NNC(=O)c1cc(-c2ccc(Cl)c(Cl)c2)nc2ccccc12)Nc1ccccc1", "values": [
      {"measurement": "AC50", "result": 6.4, "unit": "µM"}
    ]},
    {"smiles": "COc1cc(F)c(C2=CC(=O)C[C@H](c3ccc(Cl)cc3)C2)cc1F", "values": [
      {"measurement": "AC50", "result": 3.48, "unit": "µM"}
    ]},
    {"smiles": "CCCN1C/C(=C/c2ccc3c(c2)OCO3)C(=O)/C(=C/c2ccc3c(c2)OCO3)C1", "values": [
      {"measurement": "AC50", "result": 1.12, "unit": "µM"}
    ]},
    {"smiles": "COc1cc2c(-c3ccc(O)cc3)nc3c(c(C)nn3-c3ccccc3)c2cc1OC", "values": [
      {"measurement": "AC50", "result": 3.92, "unit": "µM"}
    ]},
    {"smiles": "O=C(N/N=C\\c1cc(Br)ccc1O)c1ccc(S(=O)(=O)N2CCCCC2)cc1", "values": [
      {"measurement": "AC50", "result": 2.75, "unit": "µM"}
    ]},
    {"smiles": "CC[C@@H]1CC=C[C@H]2[C@H]1C(=O)N(Cc1ccccc1)[C@H]2c1ccc(OC)c(Cl)c1", "values": [
      {"measurement": "AC50", "result": 7.13, "unit": "µM"}
    ]},
    {"smiles": "CCOC(=O)c1c(NC(=O)CSc2nc3ccc(C)cc3[nH]2)sc2c1CC(C)(C)NC2(C)C", "values": [
      {"measurement": "AC50", "result": 6.64, "unit": "µM"}
    ]},
    {"smiles": "CC(C)(C)c1ccc(O)c(O)c1", "values": [
      {"measurement": "AC50", "result": 13.3, "unit": "µM"}
    ]},
    {"smiles": "Cn1c(/C(C#N)=C(\\O)COc2ccc3ccccc3c2)nc2ccccc21", "values": [
      {"measurement": "AC50", "result": 0.359, "unit": "µM"}
    ]},
    {"smiles": "COc1ccc(-c2cc(=O)n(-c3ccc([N+](=O)[O-])cc3)[nH]2)cc1", "values": [
      {"measurement": "AC50", "result": 11.3, "unit": "µM"}
    ]},
    {"smiles": "O=C(NCCCN1CCOCC1)c1ccc(CSc2ccc(Cl)cc2)cc1", "values": [
      {"measurement": "AC50", "result": 7.77, "unit": "µM"}
    ]},
    {"smiles": "CCCCN(CCCC)CCC(O)c1cc2c(Cl)cc(Cl)cc2c2cc(C(F)(F)F)ccc12", "note": "(configuration not stated)", "values": [
      {"measurement": "AC50", "result": 7.54, "unit": "µM"}
    ]},
    {"smiles": "CCOc1cc(CNCCO)cc(Br)c1OCc1ccc(Cl)cc1Cl", "values": [
      {"measurement": "AC50", "result": 6.68, "unit": "µM"}
    ]},
    {"smiles": "Cc1cc(C)cc(NS(=O)(=O)c2ccc(Oc3ncc(C(F)(F)F)cc3Cl)cc2)c1", "values": [
      {"measurement": "AC50", "result": 4.3, "unit": "µM"}
    ]},
    {"smiles": "CC(C)C[C@@H](CO)N(Cc1ccccc1)S(=O)(=O)N(Cc1ccccc1)[C@H](CO)CC(C)C", "values": [
      {"measurement": "AC50", "result": 7.24, "unit": "µM"}
    ]},
    {"smiles": "CCN1CCN(c2cc(C(C)(C)C)nc3c(-c4ccccc4)c(C)nn23)CC1", "values": [
      {"measurement": "AC50", "result": 6.81, "unit": "µM"}
    ]}
  ]
}
